# Measurements taken from ChEMBL document CHEMBL1687756 (Antimicrob Agents Chemother, 2010).
# How the values were obtained:
# [1] = Drug level in Beagle dog thymus at 5 mg/kg, sc after 6 months; assay type: ADME, organism-based, Canis lupus familiaris; set-up: dose 5 mg/kg, route subcutaneous; conditions: read-out: Drug uptake
# [2] = Absolute bioavailability in Beagle […] at 5 mg/kg administered intramuscularly after 176 days; assay type: ADME, organism-based, Canis lupus familiaris; conditions: in vivo, im
# [3] = Drug level in Beagle dog lymph node iliac at 5 mg/kg, sc after 3 months; assay type: ADME, organism-based, Canis lupus familiaris; set-up: dose 5 mg/kg, route subcutaneous; conditions: read-out: Drug uptake
# [4] = Drug level in Beagle dog lymph node iliac at 5 mg/kg, sc after 6 months; assay type: ADME, organism-based, Canis lupus familiaris; set-up: dose 5 mg/kg, route subcutaneous; conditions: read-out: Drug uptake
# Canis familiaris [5] = experiment: Toxicity in Beagle dog assessed as inflammatory signs at 20 mg/kg, sc after 3 months; assay type: organism-based, Canis lupus familiaris; set-up: dose 20 mg/kg, route subcutaneous; conditions: in vivo, 2191.5 h
# [6] = Ratio of drug level in lymph node iliac to plasma in Beagle dog at 5 mg/kg administered intramuscularly after 1 month; assay type: ADME, organism-based, Canis lupus familiaris; set-up: dose 5 mg/kg, route intramuscular; conditions: im
# Canis familiaris [7] = experiment: Toxicity in Beagle dog assessed as irritation at 20 mg/kg administered intramuscularly after 3 months; assay type: organism-based, Canis lupus familiaris; set-up: dose 20 mg/kg, route intramuscular; conditions: in vivo, im, 2191.5 h
# [8] = Drug level in male Beagle dog thymus at 400 mg/kg administered intramuscularly after 1 month; assay type: ADME, organism-based, Canis lupus familiaris; set-up: dose 400 mg/kg, route intramuscular; conditions: im, read-out: Drug uptake
# [9] = AUC (0 to last) in male dog at 200 mg, sc after 29 days; conditions: plasma
# [10] = Plasma concentration in Beagle dog at 5 mg/kg, sc after 6 months; assay type: ADME, organism-based, Canis lupus familiaris; set-up: dose 5 mg/kg, route subcutaneous
# [11] = Drug level in female Beagle dog thymus at 200 mg/kg, sc after 3 months; assay type: ADME, organism-based, Canis lupus familiaris; set-up: dose 200 mg/kg, route subcutaneous; conditions: read-out: Drug uptake
# [12] = Drug level in female Beagle dog thymus at 200 mg/kg administered intramuscularly after 3 months; assay type: ADME, organism-based, Canis lupus familiaris; set-up: dose 200 mg/kg, route intramuscular; conditions: im, read-out: Drug uptake
# [13] = Drug level in female Beagle dog thymus at 200 mg/kg, sc after 1 month; assay type: ADME, organism-based, Canis lupus familiaris; set-up: dose 200 mg/kg, route subcutaneous; conditions: read-out: Drug uptake
# [14] = AUC (0 to last) in male dog at 200 mg administered intramuscularly after 85 days; conditions: plasma, im
# [15] = Ratio of drug level in spleen to plasma in female Beagle dog at 200 mg/kg administered intramuscularly after 3 months; assay type: ADME, organism-based, Canis lupus familiaris; set-up: dose 200 mg/kg, route intramuscular; conditions: im
# [16] = Drug level in Beagle dog muscle at non-injected site at 5 mg/kg, sc after 3 months; assay type: ADME, organism-based, Canis lupus familiaris, Muscle tissue; set-up: dose 5 mg/kg, route subcutaneous; conditions: read-out: Drug uptake
# [17] = Ratio of drug level in thymus to plasma in female Beagle dog at 400 mg/kg administered intramuscularly after 3 months; assay type: ADME, organism-based, Canis lupus familiaris; set-up: dose 400 mg/kg, route intramuscular; conditions: im
# [18] = Drug level in male Beagle dog spleen at 400 mg/kg administered intramuscularly after 3 months; assay type: ADME, organism-based, Canis lupus familiaris; set-up: dose 400 mg/kg, route intramuscular; conditions: im, read-out: Drug uptake
# [19] = Ratio of drug level in thymus to plasma in male Beagle dog at 400 mg/kg administered intramuscularly after 1 month; assay type: ADME, organism-based, Canis lupus familiaris; set-up: dose 400 mg/kg, route intramuscular; conditions: im
# [20] = Drug level in female Beagle dog spleen at 400 mg/kg administered intramuscularly after 1 month; assay type: ADME, organism-based, Canis lupus familiaris; set-up: dose 400 mg/kg, route intramuscular; conditions: im, read-out: Drug uptake
# [21] = Tmax in male dog at 400 mg administered intramuscularly after 29 days; conditions: in vivo, im
# Canis familiaris [22] = experiment: Toxicity in Beagle dog assessed as white deposits at 20 mg/kg, sc after 3 months; assay type: organism-based, Canis lupus familiaris; set-up: dose 20 mg/kg, route subcutaneous; conditions: in vivo, 2191.5 h
# [23] = Plasma concentration in male Beagle dog at 400 mg/kg administered intramuscularly after 1 month; assay type: ADME, organism-based, Canis lupus familiaris; set-up: dose 400 mg/kg, route intramuscular; conditions: im
# [24] = Drug level in Beagle dog lymph node mandibular at 5 mg/kg, sc after 6 months; assay type: ADME, organism-based, Canis lupus familiaris; set-up: dose 5 mg/kg, route subcutaneous; conditions: read-out: Drug uptake
# [25] = Drug level in Beagle dog muscle at injected site at 5 mg/kg administered intramuscularly after 6 months; assay type: ADME, organism-based, Canis lupus familiaris, Muscle tissue; set-up: dose 5 mg/kg, route intramuscular; conditions: im, read-out: Drug uptake
# [26] = Ratio of drug level in thymus to plasma in female Beagle dog at 400 mg/kg, sc after 1 month; assay type: ADME, organism-based, Canis lupus familiaris; set-up: dose 400 mg/kg, route subcutaneous
# [27] = AUC (0 to last) in Beagle dog at 5 mg/kg administered intramuscularly after 176 days; assay type: ADME, organism-based, Canis lupus familiaris; set-up: dose 5 mg/kg, route intramuscular, time 0 - last; conditions: plasma, im
# Canis familiaris [28] = experiment: Toxicity in Beagle dog assessed as untoward effects at 20 mg/kg, sc; assay type: organism-based, Canis lupus familiaris; set-up: dose 20 mg/kg, route subcutaneous; conditions: in vivo
# [29] = Ratio of drug level in thymus to plasma in male Beagle dog at 200 mg/kg, sc after 1 month; assay type: ADME, organism-based, Canis lupus familiaris; set-up: dose 200 mg/kg, route subcutaneous
# [30] = Plasma concentration in female Beagle dog at 200 mg/kg administered intramuscularly after 1 month; assay type: ADME, organism-based, Canis lupus familiaris; set-up: dose 200 mg/kg, route intramuscular; conditions: im, read-out: Drug uptake
# [31] = Ratio of drug level in spleen to plasma in female Beagle dog at 200 mg/kg administered intramuscularly after 1 month; assay type: ADME, organism-based, Canis lupus familiaris; set-up: dose 200 mg/kg, route intramuscular; conditions: im
compound,measurement,setting,value
Cc1cc(/C=C/C#N)cc(C)c1Nc1ccnc(Nc2ccc(C#N)cc2)n1 [RILPIVIRINE],concentration at 4383 h,[1],20.2 ng/g
same,bioavailability,[2],102%
same,concentration at 2191.5 h,[3],16.9 ng/g
same,concentration at 4383 h,[4],9.9 ng/g
same,Activity,Canis familiaris [5],Non-toxic
same,Kp at 730.5 h,[6],168
same,Activity,Canis familiaris [7],Non-toxic
same,concentration at 730.5 h,[8],634 ng/g
same,AUC(0-t) at 696 h,[9],56.8 µg·h/mL
same,concentration at 4383 h,[10],0.0013 µg/mL
same,concentration at 2191.5 h,[11],105 ng/g
same,concentration at 2191.5 h,[12],27.4 ng/g
same,concentration at 730.5 h,[13],536 ng/g
same,AUC(0-t) at 2040 h,[14],148 µg·h/mL
same,Kp at 2191.5 h,[15],2.2
same,concentration at 2191.5 h,[16],18.5 ng/g
same,Kp at 2191.5 h,[17],4.9
same,concentration at 2191.5 h,[18],63.5 ng/g
same,Kp at 730.5 h,[19],4
same,concentration at 730.5 h,[20],311 ng/g
same,Tmax,[21],17 h
same,Activity,Canis familiaris [22],Non-toxic
same,concentration at 730.5 h,[23],0.158 µg/mL
same,concentration at 4383 h,[24],7.8 ng/g
same,concentration at 4383 h,[25],11500 ng/g
same,Kp at 730.5 h,[26],5
same,AUC(0-t) at 4224 h,[27],23.2 µg·h/mL
same,Activity,Canis familiaris [28],Non-toxic
same,Kp at 730.5 h,[29],6
same,concentration at 730.5 h,[30],61 ng/g
same,Kp at 730.5 h,[31],2.3
